Assay results: patent EP3011959A1, “Quaternary ammonium compound for use as an inhibitor of protein kinase C alpha” (Santen SAS, priority 2014, dated 2016)

Experiments:
Type in all cases: cell-based
[1] = target: PKC beta 1 (Homo sapiens, UniProt P05771); assay: Cellular assay of protein kinase C inhibition, PKC beta 1; set-up: key: *: IC 50 too high to be measured by apparatus
Procedure: (§1) CKC was tested on a cellular assay to evaluate the protein kinase C inhibition (PKC). Four subtypes of PKC are evaluated (α, β1, β2 and δ). Table 1. Cellular assay to evaluate the action of CKC on four subtypes of PKC.

[2] = target: PKC beta 2 (Homo sapiens, UniProt P05771); assay: Cellular assay of protein kinase C inhibition, PKC beta 2; set-up: key: *: IC 50 too high to be measured by apparatus
Procedure: as §1

[3] = target: PKC alpha (Homo sapiens, UniProt P17252); assay: Cellular assay of protein kinase C inhibition, PKC alpha; conditions: read-out: IC 50 PKC alpha
Procedure: as §1

[4] = target: PKC delta (Homo sapiens, UniProt Q05655); assay: Cellular assay of protein kinase C inhibition, PKC delta; set-up: key: *: IC 50 too high to be measured by apparatus
Procedure: as §1

Sequence of PKC delta (Q05655 whole entry): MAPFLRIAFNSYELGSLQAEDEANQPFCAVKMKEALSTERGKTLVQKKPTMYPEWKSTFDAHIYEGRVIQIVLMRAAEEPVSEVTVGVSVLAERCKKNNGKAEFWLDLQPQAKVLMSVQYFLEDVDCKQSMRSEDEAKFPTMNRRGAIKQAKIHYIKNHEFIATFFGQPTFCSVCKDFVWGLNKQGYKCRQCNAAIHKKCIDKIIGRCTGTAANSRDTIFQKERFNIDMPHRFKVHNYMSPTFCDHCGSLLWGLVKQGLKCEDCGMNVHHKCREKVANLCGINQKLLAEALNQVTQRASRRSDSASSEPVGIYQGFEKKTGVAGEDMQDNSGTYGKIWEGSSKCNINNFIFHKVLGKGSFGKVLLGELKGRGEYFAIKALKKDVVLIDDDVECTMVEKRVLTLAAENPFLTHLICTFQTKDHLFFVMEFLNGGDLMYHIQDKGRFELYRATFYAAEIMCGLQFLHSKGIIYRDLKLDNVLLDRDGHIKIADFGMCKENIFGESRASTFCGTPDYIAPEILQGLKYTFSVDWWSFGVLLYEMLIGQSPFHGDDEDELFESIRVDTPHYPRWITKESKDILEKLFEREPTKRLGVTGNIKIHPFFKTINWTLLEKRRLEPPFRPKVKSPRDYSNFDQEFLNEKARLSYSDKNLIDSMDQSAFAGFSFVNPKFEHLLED
Sequence of PKC beta 1 (P05771 whole entry): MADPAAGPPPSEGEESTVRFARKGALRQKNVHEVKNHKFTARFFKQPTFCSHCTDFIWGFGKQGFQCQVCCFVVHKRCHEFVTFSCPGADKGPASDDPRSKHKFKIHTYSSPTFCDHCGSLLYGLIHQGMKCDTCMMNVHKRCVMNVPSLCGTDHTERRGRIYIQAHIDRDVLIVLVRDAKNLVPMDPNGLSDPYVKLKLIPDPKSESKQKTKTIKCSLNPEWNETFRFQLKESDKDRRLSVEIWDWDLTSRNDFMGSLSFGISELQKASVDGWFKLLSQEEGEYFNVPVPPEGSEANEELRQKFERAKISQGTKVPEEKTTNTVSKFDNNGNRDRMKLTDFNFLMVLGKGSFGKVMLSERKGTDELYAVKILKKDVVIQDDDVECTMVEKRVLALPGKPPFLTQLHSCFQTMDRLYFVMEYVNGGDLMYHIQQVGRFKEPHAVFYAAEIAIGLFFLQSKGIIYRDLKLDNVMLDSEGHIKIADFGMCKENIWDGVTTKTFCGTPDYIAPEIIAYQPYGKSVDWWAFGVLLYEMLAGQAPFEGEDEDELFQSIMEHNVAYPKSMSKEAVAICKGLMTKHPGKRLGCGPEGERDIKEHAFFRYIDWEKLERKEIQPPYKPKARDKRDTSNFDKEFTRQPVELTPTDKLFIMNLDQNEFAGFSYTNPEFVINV
Sequence of PKC beta 2 (P05771 1-673 isoform P05771-2): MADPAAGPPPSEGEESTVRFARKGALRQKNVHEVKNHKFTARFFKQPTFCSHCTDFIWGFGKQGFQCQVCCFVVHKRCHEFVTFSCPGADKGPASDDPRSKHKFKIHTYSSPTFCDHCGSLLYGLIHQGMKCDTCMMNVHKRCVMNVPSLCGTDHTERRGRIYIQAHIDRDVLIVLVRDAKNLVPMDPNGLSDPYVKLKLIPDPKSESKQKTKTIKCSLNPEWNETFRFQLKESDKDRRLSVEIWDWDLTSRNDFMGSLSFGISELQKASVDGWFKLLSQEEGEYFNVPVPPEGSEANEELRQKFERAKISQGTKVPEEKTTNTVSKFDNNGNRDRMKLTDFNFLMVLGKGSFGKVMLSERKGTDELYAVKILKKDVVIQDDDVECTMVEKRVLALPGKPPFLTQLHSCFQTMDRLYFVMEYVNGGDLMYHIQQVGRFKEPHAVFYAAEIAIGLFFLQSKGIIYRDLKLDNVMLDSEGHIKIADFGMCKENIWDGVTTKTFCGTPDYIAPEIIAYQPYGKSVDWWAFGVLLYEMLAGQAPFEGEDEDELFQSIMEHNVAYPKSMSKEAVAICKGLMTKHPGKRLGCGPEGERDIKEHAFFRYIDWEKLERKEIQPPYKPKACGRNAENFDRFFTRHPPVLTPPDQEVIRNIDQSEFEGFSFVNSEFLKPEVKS

IC 50 PKC beta 1 [1]: *
IC 50 PKC beta 2 [2]: *
IC50 [3]: 4.29 µM
IC 50 PKC delta [4]: *
Compound: CCCCCCCCCCCCCCCC[N+](C)(C)Cc1ccccc1 [CKC, cetalkonium chloride]
